The source of these data is US4369188A, “2-Thioxobenz[cd]indole-1(2H)-acetic acid derivatives” (Ayerst, McKenna & Harrison Inc., priority 1981, dated 1983).

The target of experiment [1] is T1, lens aldose reductase (Bos taurus, UniProt P16116).
T1 construct: the preparation of the enzyme from bovine lens; from tissue; host or cells: bovine lens
As to the kind of experiment: in vitro aldose reductase inhibition (modified Hayman and Kinoshita procedure). It is filed as biochemical. Particulars: enzyme from bovine lens, read-out: % Inhibition at Different Molar Concentrations (in vitro); for inhibition at 10 µM: 10^-5 molar; for inhibition at 1 µM: 10^-6 molar; for inhibition at 0.1 µM: 10^-7 molar. An excerpt:
In the present case, the procedure of Hayman and Kinoshita is modified in that the final chromatography step is omitted in the preparation of the enzyme from bovine lens.
Table 1 gives the results of the compounds of formula I or an addition salt thereof when evaluated in the above in vitro test.

Experiment [2] concerns dulcitol accumulation in the lens. Briefly: galactosemic rats: decrease of dulcitol accumulation in the lens. It is filed as in vivo, rat (Sprague-Dawley). An excerpt:
The aldose reductase inhibiting property of a compound of formula I and its utilization in diminishing and alleviating diabetic complications also are demonstrable in experiments using galactosemic rats, see D. Dvornik et al., Science, 182, 1146 (1973). Such experiments are exemplified hereinbelow after the listing of the following general comments pertaining to these experiments:
(a) Four or more groups of six male rats, 50-70 g, Sprague-Dawley strain, were used. The first group, the control group, was fed a mixture of laboratory chow (rodent laboratory chow, Purina) and glucose at 20% (w/w %) concentration. The untreated galactosemic group was fed a similar diet in which galactose is substituted for glucose. The other groups were fed diets containing various amounts of the compound of formula I in the galacetose containing diet. The concentration of galactose in the diet of the treated groups was the same as that for the untreated galactosemic group.
(b) After four days, the animals were killed by decapitation. The eyeballs were removed and punctured with a razor blade; the freed lenses were rolled gently on filter paper and weighed. The sciatic nerves were dissected as completely as possible and weighed. Both tissues were frozen and kept up to two weeks before being analyzed for dulcitol.
(c) The tissues were homoginized in 5% (w/v) trichloroacetic acid and the polyol determination on the extracts were performed by a modification of the procedure of M. Kraml and L. Cosyns, Clin. Biochem., 2, 373 (1969). Only two minor reagent changes were made: (a) The rinsing mixture was an aqueous 5% (w/v) trichloroacetic acid solution and (b) the stock solution was prepared by dissolving 25 mg of dulcitol in 100 ml of an aqueous trichloroacetic acid solution. [N.B.: For each experiment the average value found in the tissued from rats fed the glucose diet was subtracted from the individual values found in the corresponding rat tissue to obtain the amount of polyol accumulated].
The results obtained are exemplified in Table 2, wherein the values under L and N respectively, represent the percentage decreases of dulcitol accumulation in the tissues of the lens, and sciatic nerve for treated rats as compared to controls.

Where [3] appears, read: 131 mg/kg/day in galactose diet, 4 days, vs controls.

Take `O=C(O)CN1C(=S)c2cccc3cccc1c23` [2-thioxo-benz[cd]indole-1(2H)-acetic acid]: in experiment [1], the inhibition at 10 µM worked out at 93%, the inhibition at 1 µM amounted to 87% and the inhibition at 0.1 µM was found to be 61%. In experiment [2] (165 mg/kg/day in galactose diet, 4 days, vs controls), the “percentage decrease of dulcitol accumulation in lens (L)” value (“percentage decrease” for short) came out at 18%.

`O=C(O)CN1C(=S)c2cccc3c(Cl)cc(Cl)c1c23` [6,8-dichloro-2-thioxo-benz[cd]indole-1(2H)-acetic acid]: in experiment [1], the inhibition at 10 µM was 94%, the inhibition at 1 µM is 76% and the inhibition at 0.1 µM came to 30%. The “percentage decrease” value in experiment [2] (128 mg/kg/day in galactose diet, 4 days, vs controls) amounted to 18%.

For `O=C(O)CN1C(=S)c2cccc3c(F)ccc1c23` [6-fluoro-2-thioxo-benz[cd]indole-1(2H)-acetic acid], in experiment [1], the inhibition at 10 µM was found to be 94%, the inhibition at 1 µM was determined as 88% and the inhibition at 0.1 µM was determined as 56%.

For the compound `O=C(O)CN1C(=S)c2cccc3c(I)ccc1c23` [6-iodo-2-thioxo-benz[cd]indole-1(2H)-acetic acid], in experiment [1], the inhibition at 10 µM turned out to be 93%, the inhibition at 1 µM was determined as 91% and the inhibition at 0.1 µM amounted to 81%. Further, in experiment [2] (141 mg/kg/day in galactose diet, 4 days, vs controls), the “percentage decrease” value is listed as 32%.

For `CCOC(=O)CN1C(=S)c2cccc3cccc1c23` [2-thioxo-benz[cd]indole-1(2H)-acetic acid, ethyl ester], in experiment [1], the inhibition at 10 µM came out at 66% and the inhibition at 1 µM is 11%. The “percentage decrease” value in experiment [2] (150 mg/kg/day in galactose diet, 4 days, vs controls) amounted to 11%.

For the compound `O=C(O)CN1C(=S)c2cccc3c(Cl)ccc1c23` [6-chloro-2-thioxo-benz[cd]indole-1(2H)-acetic acid], in experiment [1], the inhibition at 10 µM was determined as 96%, the inhibition at 1 µM was 91% and the inhibition at 0.1 µM turned out to be 66%. In addition, the “percentage decrease” value in experiment [2] (134 mg/kg/day in galactose diet, 4 days, vs controls) worked out at 27%.

For the compound `NCCOC(=O)CN1C(=S)c2cccc3cccc1c23` [2-Thioxo-benz[cd]indole-1(2H)-acetic Acid, 2-Amino-ethyl Ester], in experiment [1], the inhibition at 10 µM is 83% and the inhibition at 1 µM was determined as 29%.

With `O=C(O)CN1C(=S)c2cccc3c(Br)ccc1c23` [6-Bromo-2-thioxo-benz[cd]indole-1(2H)-acetic Acid], in experiment [1], the inhibition at 10 µM was 95%, the inhibition at 1 µM is 91% and the inhibition at 0.1 µM turned out to be 79%. Also, the “percentage decrease” value in experiment [2] (setting [3]) came out at 27%.

Take `O=C(O)CN1C(=S)c2cccc3c(Br)cc(Br)c1c23` [6,8-dibromo-2-thioxo-benz[cd]indole-1(2H)-acetic acid]: in experiment [1], the inhibition at 10 µM amounted to 89%, the inhibition at 1 µM was 56% and the inhibition at 0.1 µM worked out at 13%. Also, the “percentage decrease” value in experiment [2] (setting [3]) turned out to be 9%.

On to `CN(C)CCCOC(=O)CN1C(=S)c2cccc3c(Cl)ccc1c23` [6-Chloro-2-thioxo-benz[cd]indole-1(2H)-acetic Acid, 3-Dimethylamino-1propylEster], for which, in experiment [1], the inhibition at 10 µM is 91%, the inhibition at 1 µM was 70% and the inhibition at 0.1 µM worked out at 14%. In addition, in experiment [2] (144 mg/kg, 96 h), the “percentage decrease” value was 28%.
